Test results from ChEMBL document CHEMBL3259572, “Euodenine A: a small-molecule agonist of human TLR4” (J Med Chem, 2014).
Active and inactive are the calls of the source. The calls are words filed in the database; no cut-off is given here.

Columns and labels:
[1] = molecular target: TLR2/TLR6 (Homo sapiens) (UniProt O60603+Q9Y2C9); experiment: Agonist activity at human recombinant TLR2/6 expressed in HEK293 cells at 10 uM by SEAP reporter assay; type: cell-based
[2] = molecular target: T1, Toll-like receptor 7 (Homo sapiens) (UniProt Q9NYK1); experiment: Agonist activity at human recombinant TLR7 expressed in HEK293 cells at 10 uM by SEAP reporter assay; type: cell-based
T1 sequence (whole entry): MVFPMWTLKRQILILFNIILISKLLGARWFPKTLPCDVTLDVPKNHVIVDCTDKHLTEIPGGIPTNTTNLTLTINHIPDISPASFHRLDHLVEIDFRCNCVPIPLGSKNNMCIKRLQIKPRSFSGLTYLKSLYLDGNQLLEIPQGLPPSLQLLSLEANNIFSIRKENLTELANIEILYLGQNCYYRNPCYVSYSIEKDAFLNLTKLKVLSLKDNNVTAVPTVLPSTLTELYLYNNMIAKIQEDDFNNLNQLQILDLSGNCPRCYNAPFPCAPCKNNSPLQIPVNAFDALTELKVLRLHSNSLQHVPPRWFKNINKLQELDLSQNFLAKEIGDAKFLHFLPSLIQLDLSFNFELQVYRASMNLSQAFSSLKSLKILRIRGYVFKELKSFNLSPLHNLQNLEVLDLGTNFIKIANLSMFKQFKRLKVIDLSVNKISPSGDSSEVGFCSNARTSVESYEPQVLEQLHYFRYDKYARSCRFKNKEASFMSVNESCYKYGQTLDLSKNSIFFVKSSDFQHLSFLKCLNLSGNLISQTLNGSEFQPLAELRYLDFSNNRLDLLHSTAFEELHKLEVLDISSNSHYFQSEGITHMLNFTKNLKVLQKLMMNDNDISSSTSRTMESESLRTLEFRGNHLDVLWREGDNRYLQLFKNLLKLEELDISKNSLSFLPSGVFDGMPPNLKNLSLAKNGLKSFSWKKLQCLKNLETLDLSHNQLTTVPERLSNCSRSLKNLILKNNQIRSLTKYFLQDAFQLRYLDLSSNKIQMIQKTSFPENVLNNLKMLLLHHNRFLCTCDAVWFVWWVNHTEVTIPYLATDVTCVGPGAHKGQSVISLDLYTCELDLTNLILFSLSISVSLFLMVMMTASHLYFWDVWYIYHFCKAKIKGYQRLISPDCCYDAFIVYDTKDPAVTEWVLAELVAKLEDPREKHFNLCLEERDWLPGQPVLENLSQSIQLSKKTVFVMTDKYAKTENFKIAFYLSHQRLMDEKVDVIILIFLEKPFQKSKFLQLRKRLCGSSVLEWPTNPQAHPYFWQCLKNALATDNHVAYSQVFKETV

[3] = molecular target: Toll-like receptor 5 (Homo sapiens) (UniProt O60602); experiment: Agonist activity at human recombinant TLR5 expressed in HEK293 cells at 10 uM by SEAP reporter assay; type: cell-based
[4] = test system: PBMC; experiment: Induction of IL-8 production in human PBMC at 10 uM by ELISA; type: functional, cell-based
[5] = molecular target: T2, Toll-like receptor 8 (Homo sapiens) (UniProt Q9NR97); experiment: Agonist activity at human recombinant TLR8 expressed in HEK293 cells at 10 uM by SEAP reporter assay; type: cell-based
T2 sequence (whole entry): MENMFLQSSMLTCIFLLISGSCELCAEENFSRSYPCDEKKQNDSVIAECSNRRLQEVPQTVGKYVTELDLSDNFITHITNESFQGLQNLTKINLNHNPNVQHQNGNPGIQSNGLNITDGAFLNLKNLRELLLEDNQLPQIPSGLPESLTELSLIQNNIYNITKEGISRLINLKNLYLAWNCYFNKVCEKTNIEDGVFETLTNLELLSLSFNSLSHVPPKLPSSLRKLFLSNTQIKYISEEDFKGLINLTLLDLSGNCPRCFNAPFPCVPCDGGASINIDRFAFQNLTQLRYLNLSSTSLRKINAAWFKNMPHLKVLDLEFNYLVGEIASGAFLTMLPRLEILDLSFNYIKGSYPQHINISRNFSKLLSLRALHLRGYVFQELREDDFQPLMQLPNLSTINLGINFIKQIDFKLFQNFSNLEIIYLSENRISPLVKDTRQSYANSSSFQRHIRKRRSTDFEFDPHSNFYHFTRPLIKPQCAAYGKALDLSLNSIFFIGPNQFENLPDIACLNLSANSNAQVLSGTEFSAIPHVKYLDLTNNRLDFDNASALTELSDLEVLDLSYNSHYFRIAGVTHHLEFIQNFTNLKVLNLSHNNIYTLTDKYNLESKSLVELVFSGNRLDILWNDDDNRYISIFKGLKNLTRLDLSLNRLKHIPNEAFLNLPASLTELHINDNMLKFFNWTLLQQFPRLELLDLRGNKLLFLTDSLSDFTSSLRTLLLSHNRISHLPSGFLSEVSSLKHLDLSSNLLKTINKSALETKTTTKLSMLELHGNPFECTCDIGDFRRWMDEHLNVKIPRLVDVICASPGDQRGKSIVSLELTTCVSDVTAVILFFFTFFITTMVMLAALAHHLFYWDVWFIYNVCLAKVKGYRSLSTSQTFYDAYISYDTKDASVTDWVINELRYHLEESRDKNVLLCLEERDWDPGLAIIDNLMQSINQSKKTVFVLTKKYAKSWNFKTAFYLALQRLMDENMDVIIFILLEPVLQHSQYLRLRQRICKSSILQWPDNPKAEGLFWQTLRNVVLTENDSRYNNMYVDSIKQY

[6] = molecular target: T3, Toll-like receptor 4 (Homo sapiens, UniProt O00206); experiment: Agonist activity at human recombinant TLR4 expressed in HEK293 cells by SEAP reporter assay; type: cell-based
[7] = test system: PBMC; experiment: Cytotoxicity against PHA-stimulated human PBMC at 20 uM by WST-1 cell proliferation assay; type: cell-based
[8] = test system: PBMC; experiment: Induction of TNFalpha production in human PBMC at 10 uM by ELISA; type: functional, cell-based
[9] = test system: PBMC; experiment: Induction of IL-12p40 production in human PBMC at 10 uM by ELISA; type: functional, cell-based
[10] = molecular target: T3, Toll-like receptor 4; experiment: Agonist activity at human recombinant TLR4 expressed in HEK293 cells coexpressed with human MD2 assessed as TNFalpha response by NFkappaB reporter assay; type: cell-based

T3 sequence (O00206 whole entry): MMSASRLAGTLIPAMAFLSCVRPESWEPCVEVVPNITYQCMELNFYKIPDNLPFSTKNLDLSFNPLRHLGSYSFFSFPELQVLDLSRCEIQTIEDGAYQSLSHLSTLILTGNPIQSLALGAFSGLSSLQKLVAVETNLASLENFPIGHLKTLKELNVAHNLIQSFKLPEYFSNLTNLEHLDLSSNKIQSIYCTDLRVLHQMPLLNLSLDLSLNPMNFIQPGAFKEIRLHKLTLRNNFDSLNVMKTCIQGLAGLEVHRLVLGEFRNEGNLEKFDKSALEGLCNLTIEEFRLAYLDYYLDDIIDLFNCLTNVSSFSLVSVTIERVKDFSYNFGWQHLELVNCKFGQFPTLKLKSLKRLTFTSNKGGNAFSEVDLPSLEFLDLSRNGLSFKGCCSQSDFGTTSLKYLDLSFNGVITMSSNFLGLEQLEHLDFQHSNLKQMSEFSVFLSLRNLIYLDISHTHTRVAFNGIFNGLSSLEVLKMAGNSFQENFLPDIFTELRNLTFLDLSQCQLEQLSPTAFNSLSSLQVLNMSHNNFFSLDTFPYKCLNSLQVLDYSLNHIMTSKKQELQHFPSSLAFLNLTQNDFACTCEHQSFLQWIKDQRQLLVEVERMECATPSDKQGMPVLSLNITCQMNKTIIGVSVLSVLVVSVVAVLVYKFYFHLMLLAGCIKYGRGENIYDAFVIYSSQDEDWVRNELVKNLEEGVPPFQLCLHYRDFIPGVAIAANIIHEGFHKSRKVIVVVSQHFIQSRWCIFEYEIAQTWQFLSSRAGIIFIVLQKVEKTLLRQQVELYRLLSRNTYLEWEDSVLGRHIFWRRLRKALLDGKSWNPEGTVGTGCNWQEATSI
Chain of Toll-like receptor 5 (Homo sapiens) (O60602 whole entry): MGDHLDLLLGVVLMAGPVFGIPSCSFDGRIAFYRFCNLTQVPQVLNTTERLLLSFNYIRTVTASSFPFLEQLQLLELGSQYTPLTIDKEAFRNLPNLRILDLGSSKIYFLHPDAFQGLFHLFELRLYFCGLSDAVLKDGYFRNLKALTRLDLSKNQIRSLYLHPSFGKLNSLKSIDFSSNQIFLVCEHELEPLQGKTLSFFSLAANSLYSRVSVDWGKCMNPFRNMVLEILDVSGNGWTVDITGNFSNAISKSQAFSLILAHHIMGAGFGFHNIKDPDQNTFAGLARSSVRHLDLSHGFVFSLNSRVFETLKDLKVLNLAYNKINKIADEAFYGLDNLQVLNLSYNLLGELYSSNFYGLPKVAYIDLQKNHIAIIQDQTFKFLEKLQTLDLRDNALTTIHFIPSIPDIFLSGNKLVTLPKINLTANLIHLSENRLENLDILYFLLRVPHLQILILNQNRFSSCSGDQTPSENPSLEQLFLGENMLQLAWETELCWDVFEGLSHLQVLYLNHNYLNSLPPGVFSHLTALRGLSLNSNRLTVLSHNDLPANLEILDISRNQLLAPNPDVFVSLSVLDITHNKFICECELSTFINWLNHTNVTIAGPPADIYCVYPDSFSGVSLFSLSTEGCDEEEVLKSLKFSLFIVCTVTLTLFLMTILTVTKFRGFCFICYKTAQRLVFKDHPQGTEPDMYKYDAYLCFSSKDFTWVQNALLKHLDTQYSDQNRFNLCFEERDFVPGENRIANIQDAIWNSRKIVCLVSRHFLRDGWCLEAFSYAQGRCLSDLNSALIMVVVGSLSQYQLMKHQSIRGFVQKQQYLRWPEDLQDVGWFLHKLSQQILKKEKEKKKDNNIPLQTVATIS

COc1cc([C@@H]2[C@@H](C)[C@H]3[C@@H]2c2c(c4ccccc4[nH]c2=O)OC3(C)C)cc(OC)c1OC
Activity [1]: inactive | Activity [2]: inactive | Activity [3]: inactive | Activity [4]: Active | Activity [5]: inactive | EC50 [6]: 3.9 µM | Activity [7]: Non-toxic | Activity [8]: Active | Activity [9]: Active | Activity [10]: Active
